Measured values as given in PubChem BioAssay AID220 (DTP/NCI, 2004).
Several values for one entry are separate records, joined by “and”; a condition that tells them apart may be missing. Equal values may be shown once. Records with an inconclusive call do not appear.

Test system: CD8F1 mice, subcutaneous mammary adenocarcinoma, T/C%
Test: NCI In Vivo Anticancer Drug Screen. Data for tumor model Mammary Adenocarcinoma CD8F1 (subcutaneous) in CD8F1
Details: higher = larger tumour
Method in brief: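 Antitumor activity is assessed in transplantable-tumor mice by comparing the treated group with a vehicle-treated control group. Survival or tumor size serves as the measure, reported as T divided by C.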

C=C1C(=O)C2=CC1CCC(=O)C1(C)CCC(OC(C)=O)C(C)(C)C1CC2O (centres undefined)
T/C (endpoint: median tumor weight change, dose: 37.5 mg/kg/injection, schedule: Q01DX001 (ip), vehicle: Klucel (hydroxypropylcellulose) (HPC)): 83 % of control | T/C (endpoint: median tumor weight change, dose: 75.0 mg/kg/injection, schedule: Q01DX001 (ip), vehicle: Klucel (hydroxypropylcellulose) (HPC)): 88 % of control | T/C (endpoint: median tumor weight change, dose: 150.0 mg/kg/injection, schedule: Q01DX001 (ip), vehicle: Klucel (hydroxypropylcellulose) (HPC)): 30 % of control

O=C(Nc1ccccc1)c1c(O)[nH]c(=S)[nH]c1=O
T/C (endpoint: median tumor weight change, dose: 56.0 mg/kg/injection, schedule: Q01DX001 (ip), vehicle: saline with Tween-80): 61 % of control | T/C (endpoint: median tumor weight change, dose: 112.0 mg/kg/injection, schedule: Q01DX001 (ip), vehicle: saline with Tween-80): 80 % of control

C=CS(C=C)=NS(=O)(=O)c1ccc(C)cc1
T/C (endpoint: median tumor weight (est.), dose: 3.12 mg/kg/injection, schedule: Q07DX005 (ip), vehicle: Klucel (hydroxypropylcellulose) (HPC)): 94 % of control | T/C (endpoint: median tumor weight (est.), dose: 6.25 mg/kg/injection, schedule: Q07DX005 (ip), vehicle: Klucel (hydroxypropylcellulose) (HPC)): 101 % of control | T/C (endpoint: median tumor weight (est.), dose: 12.5 mg/kg/injection, schedule: Q07DX005 (ip), vehicle: Klucel (hydroxypropylcellulose) (HPC)): 89 % of control

Cc1cnc(/C=N\NC(N)=S)c2cccc(N)c12
T/C (endpoint: median tumor weight (est.), dose: 3.12 mg/kg/injection, schedule: Q07DX005 (ip), vehicle: saline with Tween-80): 93 % of control | T/C (endpoint: median tumor weight (est.), dose: 12.5 mg/kg/injection, schedule: Q07DX005 (ip), vehicle: saline with Tween-80): 83 % of control and 94 % of control | T/C (endpoint: median tumor weight (est.), dose: 25.0 mg/kg/injection, schedule: Q07DX005 (ip), vehicle: saline with Tween-80): 54 % of control and 71 % of control | T/C (endpoint: median tumor weight (est.), dose: 50.0 mg/kg/injection, schedule: Q07DX005 (ip), vehicle: saline with Tween-80): 46 % of control and 62 % of control | T/C (endpoint: median tumor weight (est.), dose: 100.0 mg/kg/injection, schedule: Q07DX005 (ip), vehicle: saline with Tween-80): 55 % of control and 66 % of control

C=C(C)C12CC(C)C34OC(CCCCCCCCCCC)(OC1C3C1OC1(CO)C(O)C1(O)C(=O)C(C)=CC14C)O2 (centres undefined)
T/C (endpoint: median tumor weight (est.), dose: 100.0 micrograms/kg/injection, schedule: Q07DX005 (ip), vehicle: saline + alcohol): 58 % of control | T/C (endpoint: median tumor weight (est.), dose: 200.0 micrograms/kg/injection, schedule: Q07DX005 (ip), vehicle: saline + alcohol): 71 % of control | T/C (endpoint: median tumor weight (est.), dose: 400.0 micrograms/kg/injection, schedule: Q07DX005 (ip), vehicle: saline + alcohol): 49 % of control

NC(CNC(=O)CBr)C(=O)O (centres undefined)
T/C (endpoint: median tumor weight change, dose: 62.5 mg/kg/injection, schedule: Q01DX001 (ip), vehicle: water): 95 % of control | T/C (endpoint: median tumor weight change, dose: 125.0 mg/kg/injection, schedule: Q01DX001 (ip), vehicle: water): 77 % of control

CCN(CC)CCNc1ccc(C)c2sc3ccc(O)cc3c(=O)c12
T/C (endpoint: median tumor weight change, dose: 62.5 mg/kg/injection, schedule: Q01DX001 (ip), vehicle: saline with Tween-80): 59 % of control | T/C (endpoint: median tumor weight change, dose: 125.0 mg/kg/injection, schedule: Q01DX001 (ip), vehicle: saline with Tween-80): 169 % of control | T/C (endpoint: median tumor weight change, dose: 684.0 mg/kg/injection, schedule: Q01DX001 (ip), vehicle: saline with Tween-80): 37 % of control

CN1C(=O)CC2(CCN(CCCC(=O)c3ccc(F)cc3)CC2)C1=O
T/C (endpoint: median tumor weight (est.), dose: 6.25 mg/kg/injection, schedule: Q07DX005 (ip), vehicle: saline): 112 % of control | T/C (endpoint: median tumor weight (est.), dose: 6.25 mg/kg/injection, schedule: Q07DX005 (ip), vehicle: suspension in saline): 52 % of control | T/C (endpoint: median tumor weight (est.), dose: 12.5 mg/kg/injection, schedule: Q07DX005 (ip), vehicle: saline): 62 % of control | T/C (endpoint: median tumor weight (est.), dose: 12.5 mg/kg/injection, schedule: Q07DX005 (ip), vehicle: suspension in saline): 108 % of control | T/C (endpoint: median tumor weight (est.), dose: 25.0 mg/kg/injection, schedule: Q07DX005 (ip), vehicle: saline): 170 % of control | T/C (endpoint: median tumor weight (est.), dose: 50.0 mg/kg/injection, schedule: Q07DX005 (ip), vehicle: saline): 117 % of control | T/C (endpoint: median tumor weight (est.), dose: 50.0 mg/kg/injection, schedule: Q07DX005 (ip), vehicle: suspension in saline): 258 % of control | T/C (endpoint: median tumor weight (est.), dose: 100.0 mg/kg/injection, schedule: Q07DX005 (ip), vehicle: suspension in saline): 122 % of control

CN(C)C1C(=O)C(C(=O)NP(=O)(NCCCO)N(CCCl)CCCl)=C(O)C2(O)C(=O)C3=C(O)c4c(O)cccc4C(C)(O)C3CC12 (centres undefined)
T/C (endpoint: median tumor weight change, dose: 250.0 mg/kg/injection, schedule: Q01DX001 (ip), vehicle: saline with Tween-80): 46 % of control and 69 % of control | T/C (endpoint: median tumor weight change, dose: 500.0 mg/kg/injection, schedule: Q01DX001 (ip), vehicle: saline with Tween-80): 21 % of control

Nc1ncnc2c1ncn2C1C=C(CO)C(O)C1O (centres undefined)
T/C (endpoint: median tumor weight change, dose: 2.5 mg/kg/injection, schedule: Q01DX001 (ip), vehicle: saline): 63 % of control | T/C (endpoint: median tumor weight change, dose: 2.5 mg/kg/injection, schedule: Q01DX001 (ip), vehicle: suspension in saline): 113 % of control | T/C (endpoint: median tumor weight change, dose: 5.0 mg/kg/injection, schedule: Q01DX001 (ip), vehicle: saline): 107 % of control | T/C (endpoint: median tumor weight change, dose: 5.0 mg/kg/injection, schedule: Q01DX001 (ip), vehicle: suspension in saline): 115 % of control | T/C (endpoint: median tumor weight change, dose: 10.0 mg/kg/injection, schedule: Q01DX001 (ip), vehicle: saline): 100 % of control | T/C (endpoint: median tumor weight change, dose: 20.0 mg/kg/injection, schedule: Q01DX001 (ip), vehicle: saline): 86 % of control | T/C (endpoint: median tumor weight change, dose: 20.0 mg/kg/injection, schedule: Q01DX001 (ip), vehicle: suspension in saline): 39 % of control | T/C (endpoint: median tumor weight change, dose: 40.0 mg/kg/injection, schedule: Q01DX001 (ip), vehicle: saline): 40 % of control
